We go through 2 molecules from paper PMC5909954 (Toxicology, 2018).

The structures appear in SMILES notation.

For one test, the target named is Complex I. In words: immunocapture-based OXPHOS activity assay. The class given is biochemical, Bos taurus.
For test [1], the target named is Complex V (F1FO ATP synthase). In words: immunocapture-based OXPHOS activity assay. The class given is biochemical, Bos taurus.

Turning to `C/C(O)=C(\C#N)C(=O)Nc1ccc(C(F)(F)F)cc1` [A77 1726, 2-Cyano-3-hydroxy-N-[4-(trifluoromethyl)phenyl]-2-butenamide], the IC50 – broadly, the concentration that inhibits the measured activity by half – against Complex I turned out to be 229 µM; in test [1] it was 63.7 µM.
Taken in the same sequence, the figures for `Cc1oncc1C(=O)Nc1ccc(C(F)(F)F)cc1` [leflunomide] were 200 µM and 35 µM.
